Patent US7049321B2, “Methods and pharmaceutical compositions for treatment of central and peripheral nervous system disorders and compounds useful therefor” (Israel Institute for Biological Research, priority 2002, dated 2006)

Experiments:
C57BL6J mice = experiment: Morris water maze in normal hippocampus mice; type: in vivo; conditions: for Training, escape latency: 0.5 and 1 mg/kg i.p. (rivastigmine, nicotine 1 mg/kg); for Training, path length: AF150(S) only the higher dose; for Reversal test, swimming speed: AF150(S)-0.5 mg/kg, AF267B-1 mg/kg, rivastigmine, nicotine
Procedure: Each group of mice was randomly divided into 7 treatment groups (n=12-14/group). […] All tested compounds and saline were administered once a day for 4 days before starting the behavioral testing, and then for the duration of the 5-day experiment, 30 minutes before testing.
Training: Each mouse was trained for four consecutive days, four trials (one block) per day, in which the platform position remained constant and was located in the center of the southeast quadrant of the pool. Within each block of four trials, each mouse started at each of the starting locations, but the sequence of locations was randomly selected. A trial consisted of placing a mouse by hand into the water facing the wall of the pool at one of four starting locations, north, south, east or west, around the pool's perimeter. Escape latency (the time to find the platform), path length (the distance traveled by the mouse) and speed (the swimming rate of the mouse) were recorded on each trial by the monitoring system.
For each mouse, the path length, escape latency, and swimming speed of the four trials on each of the 4 training days were grouped into blocks (one block for each day). […] Specific comparisons were performed, using the simple main effects contrasts acalysis, which is specifically suited for testing significant interactions.
Transfer test. During trial No. 17, on the fourth day, the platform was entirely removed from the pool (a probe trial). In this trial, the mouse was placed into the water for a limited period (30 s), and its spatial bias was measured by recording the relative distribution of escape latency and path length over the four quadrants of the pool.
Reversal test. During trials 18–21, on the fifth day, the platform position was changed to the northwest quadrant, opposite to the training quadrant. Thus, during reversal learning, the platform location was moved relative to the configuration of objects within the room, but the pool occupied the same place within the room throughout the entire experiment. Testing of the rats and measures taken were the same as in training.
For each mouse, the escape latency, path length and swimming speed of the reversal test (trials No. 18–21) were grouped into one block.

naive rats = experiment: Social memory (olfactory recognition) in naive rats; type: in vivo, Wistar rats; conditions: 0.5, 1 and 5 mg/kg, p.o.
Procedure: 12 Male Wistar rats, 400–530 gr (4–5 months old) were used. Rats were housed individually 14 days before testing. Juvenile Wistar rats 40–50 gr (at arrival) were kept in groups of 6 and served as social stimuli for the adult rats. Animals were kept at 21° C.±1, with an inverse light-dark cycle (light on from 2:00 P.M. to 2:00 A.M.). The sessions were conducted 7 hr into the dark part of the light/dark cycle, under red illumination.
Adult rats were placed in a dim illumination room 1.5 h before the beginning of the social test. All juveniles were isolated in cages for 30 min prior to the beginning of the experiment. At the beginning of testing, an unfamiliar juvenile rat was placed in the home cage of an adult rat for 5 min. The time spent by the adult rat in investigating the juvenile rat was recorded. The adult rat was then immediately (1–2 min) treated with vehicle or test compound. Two hours later, the same juvenile was presented to the same adult rat for another 5 min period, a time when normally the stimulus juvenile is no longer identified (i.e., the adult rat investigates the juvenile for the same amount of time as during the first presentation). […]
Time spent in social investigation of stimulus juvenile rat was measured (in sec) and then expressed for each animal as the ratio of the second exposure to the first exposure (Ratio of Investigation Duration (RID)). […]

[1] = test system: mice with closed head injury; experiment: Closed head injury in mice, neurological severity score; type: in vivo; conditions: for Balance test (beam walk): 80% in control
Procedure: Closed head injury (CHI) was induced in mice as described in Chen et al, J Neurotrauma, 15: 231–237, 1998. Neurological severity scores (NSS) were assessed using a battery of 10 parameters (10=worst outcome, 0=normal function). The compounds tested (1 mg compound/kg body weight) vs. placebo-treated animals were injected ip 5 min after CHI vs. placebo-treated animals. Treated mice were evaluated at 1 h, to determine the severity of injury, and at 24 and 48 h to determine recovery. The NSS was as follows: 1. […] 2.

[2] = Pharmacokinetic study in dogs; type: in vivo; conditions: beagle, dog, plasma
Excerpt: The results of the PK profile of AF292 in rats and Beagle dogs (overnight fasting; drug administered in water solution; gavage) are listed in Table 1.

rat M1 mAChR = biological target: T1, rat M1 mAChR (Rattus norvegicus, UniProt P08482); experiment: PI turnover, rat M1 mAChR; type: cell-based
T1 construct: expressed in transfected cells; host or cells: probably the rat pheochromocytoma cells transfected with M1 mAChR

human M1 = biological target: T2, human M1 (Homo sapiens, UniProt P11229); experiment: PI hydrolysis in cells transfected with human M1; type: cell-based; design: expressed in transfected cells
T2 sequence (P11229 1-460): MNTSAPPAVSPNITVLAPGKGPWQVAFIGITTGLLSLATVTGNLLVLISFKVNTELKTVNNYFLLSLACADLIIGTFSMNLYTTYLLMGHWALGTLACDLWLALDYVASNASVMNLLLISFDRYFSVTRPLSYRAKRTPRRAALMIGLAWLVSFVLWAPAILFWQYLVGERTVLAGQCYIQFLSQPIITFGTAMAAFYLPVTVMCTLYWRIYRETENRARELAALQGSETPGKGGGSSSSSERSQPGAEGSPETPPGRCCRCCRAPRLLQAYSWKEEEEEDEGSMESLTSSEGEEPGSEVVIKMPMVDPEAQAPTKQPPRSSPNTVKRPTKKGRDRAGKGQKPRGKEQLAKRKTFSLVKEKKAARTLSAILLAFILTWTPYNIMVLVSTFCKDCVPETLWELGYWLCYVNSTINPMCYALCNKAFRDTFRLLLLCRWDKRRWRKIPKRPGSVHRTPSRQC

[3] = Metabolic stability, human liver microsomes; type: in vitro ADME; conditions: read-out: Metabolic Stability T1/2
Procedure: The metabolic stability of AF292 was evaluated by monitoring its disappearance while incubated with rat, […], monkey, and human hepatic microsomes. Testosterone, and propranolol were run as assay controls.

[4] = 1 mg/kg ip 5 min after CHI, 1 h
[5] = oral, Dogs, extrapolated for 5 mg/kg

T1 sequence (P08482 whole entry): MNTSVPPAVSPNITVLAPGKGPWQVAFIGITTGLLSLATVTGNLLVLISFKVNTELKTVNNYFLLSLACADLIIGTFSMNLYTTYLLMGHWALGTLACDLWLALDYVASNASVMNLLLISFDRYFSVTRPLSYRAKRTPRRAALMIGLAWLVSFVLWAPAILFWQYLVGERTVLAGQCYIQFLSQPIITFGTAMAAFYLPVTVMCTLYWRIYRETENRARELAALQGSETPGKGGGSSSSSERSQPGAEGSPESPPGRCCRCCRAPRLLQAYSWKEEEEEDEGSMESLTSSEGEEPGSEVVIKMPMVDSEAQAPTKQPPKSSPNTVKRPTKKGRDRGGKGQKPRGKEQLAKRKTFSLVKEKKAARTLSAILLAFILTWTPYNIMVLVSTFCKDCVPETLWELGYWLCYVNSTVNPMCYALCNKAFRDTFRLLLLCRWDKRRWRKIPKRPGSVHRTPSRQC

Compound	Training, escape latency (C57BL6J mice)	Training, path length (C57BL6J mice)	Reversal test, swimming speed (C57BL6J mice)	Training, swimming speed (C57BL6J mice; mouse, in vivo)	Investigation time of the same juvenile (RID) (naive rats)	NSS [1, 4]	NSS ([1]; 1 mg/kg ip, 24 h)	NSS ([1]; 1 mg/kg ip, 48 h)	PI turnover vs. CCh, rat M1 mAChR (rat M1 mAChR)	PI turnover vs. carbachol, M1 (human M1) [%]	half-life [3] [h]	further results
CC1=NCC2(CCN(C)CC2)S1 [AF150(S), 2,8-Dimethyl-1-thia-3,8-diaza-spiro[4.5]dec-2-ene]	increased the escape latencies	impaired the path length	significantly decreased	impaired the swimming speed	decreased the investigation time	8.00+/−0.21	4.30+/−0.26	2.90+/−0.3	–	–	–	Reversal test, escape latency (C57BL6J mice; AF150(S) 0.5 mg/kg): impaired the escape latency; Transfer test, spatial bias (C57BL6J mice; mouse, in vivo): partial spatial bias
CC[C@@H]1SC2(CCN(C)CC2)NC1=O [AF267B, (S)-2-ethyl-8-methyl-1-thia-4,8-diaza-spiro[4.5]decan-3-one]	did not significantly affect	neither AF267B nor rivastigmine had any effect	significantly decreased	no such effect	decreased the investigation time	7.89+/−0.26	3.67+/−0.24	2.89+/−0.26	PI, rat M1 mAChR: 75%	~66	> 1.67	AUC(0-inf) [2, 5]: 2760 ng·h/mL; Cmax [2, 5]: 1080 ng/mL; AUC(0-inf) ([2]; po, Dogs., 1 mg/kg): 552 ng·h/mL; Cmax ([2]; po, Dogs., 1 mg/kg): 257 ng/mL; MRT ([2]; po, Dogs., 1 mg/kg): 1.96 h; Tmax ([2]; po, Dogs., 1 mg/kg): 0.58 to 0.75 h; half-life ([2]; po, Dogs., 1 mg/kg): 1.33 h; Balance test (beam walk) ([1]; 24 h (3 cm)): 22%; Balance test (beam walk) ([1]; 48 h (2 cm)): 33%
CC[C@@H]1SC2(CCNCC2)NC1=O [AF292, (S)-2-Ethyl-1-thia-4,8-diaza-spiro[4.5]decan-3-one]	–	–	–	–	–	–	–	–	PI, rat M1 mAChR; 50%	~35	> 1.67	AUC(0-inf) ([2]; po, Dogs, 5 mg/kg): 4650 ng·h/mL; Cmax ([2]; po, Dogs, 5 mg/kg): 1190 ng/mL; MRT ([2]; po, Dogs, 5 mg/kg): 4.85 h; Tmax ([2]; po, Dogs, 5 mg/kg): 0.8 h; half-life ([2]; po, Dogs, 5 mg/kg): 2.04 h
